Test results reported in ChEMBL document CHEMBL4651402, “Screening of ~5500 FDA-approved drugs and clinical candidates for anti-SARS-CoV-2 activity” (2021).

Tested on: SARS-CoV-2
Experiment: microbe, parasite or virus in culture
Conditions: Severe acute respiratory syndrome coronavirus 2, Vero C1008, 48 h

SMILES	IC50	IC50 (read-out: pIC50 (converted))
NCC(O)CC(=O)O (stereo not drawn) [GAMMA-AMINO-BETA-HYDROXYBUTYRIC ACID]	> 20 µM	> 20 µM
CC(C)=CCC/C(C)=C/COc1ccc2ccc(=O)oc2c1	> 20 µM	> 20 µM
CC(C)c1cccc(C(C)C)c1O [PROPOFOL]	> 20 µM	> 20 µM
CCC(=O)OC1(c2ccccc2)CCN(C)CC1	> 20 µM	> 20 µM
CC1CC2C3CCC4=CC(=O)C=CC4(C)[C@@]3(F)C(O)CC2(C)C1(O)C(=O)COP(=O)(O)O (stereo partly specified)	> 20 µM	> 20 µM
COc1ccc(C(=O)OC2CCC3(C)C4CCC5[C@]6(O)[C@@H](O)C(O)[C@H]7C(CN8CC(C)CC[C@H]8[C@@]7(C)O)[C@@H]6C[C@@]53O[C@]24O)cc1OC (stereo partly specified)	> 20 µM	> 20 µM
CN(C)CCCO[C@@H]1[C@H]2OC(C)(C)O[C@H]2O[C@@H]1[C@H](O)CO [AMIPRILOSE]	> 20 µM	> 20 µM
COc1ccc(-c2ccc(N)[n+](CCCC(=O)O)n2)cc1	> 20 µM	> 20 µM
CC[N+](CC)(CC(=O)Nc1c(C)cccc1C)Cc1ccccc1 [DENATONIUM]	> 20 µM	> 20 µM
CC(=O)OCC1=C(C(=O)O)N2C(=O)C(NC(=O)CSc3ccncc3)C2SC1 (stereo unspecified)	> 20 µM	> 20 µM
CCC(CC)CC1(C(=O)Nc2ccccc2SC(=O)C(C)C)CCCCC1 [DALCETRAPIB]	> 20 µM	> 20 µM
CC1=C(C(=O)O)N2C(=O)C(NC(=O)C(N)c3ccc(O)cc3)C2SC1 (stereo unspecified)	> 20 µM	> 20 µM
CN1CCN(c2cc3c(nn2)Oc2ccccc2N3C)CC1 [PIPOFEZINE]	> 20 µM	> 20 µM
N[C@H](CO)Cc1ccccc1 [L-PHENYLALANINOL]	> 20 µM	> 20 µM
CC(CCC(=O)O)C1CCC2C3C(=O)C[C@@H]4CC(=O)CC[C@]4(C)C3CC(=O)[C@]12C (stereo partly specified)	> 20 µM	> 20 µM
Cc1c(F)cc(C(=O)NC2CC2)cc1-c1ccc(C(=O)NCC(C)(C)C)cn1 [LOSMAPIMOD]	> 20 µM	> 20 µM
CCCc1c(OCCCOc2ccc(C(C)=O)c(OC)c2CCC)ccc2c1OC(C(=O)O)CC2 (stereo unspecified) [SC-41390]	> 20 µM	> 20 µM
C[N+](C)(C)NCCC(=O)O	> 20 µM	> 20 µM
Cc1cccc(N2CC(CO)OC2=O)c1 (stereo unspecified) [TOLOXATONE]	> 20 µM	> 20 µM
CCn1c(=Cc2cccc[n+]2CC)sc(=C2Sc3ccccc3N2C)c1=O	> 20 µM	> 20 µM
C[C@@H]1C[C@H]2[C@@H]3CCC4=CC(=O)C=C[C@]4(C)[C@@]3(Cl)[C@@H](O)C[C@]2(C)[C@@]1(OC(=O)c1ccco1)C(=O)CCl [MOMETASONE FUROATE]	> 20 µM	> 20 µM

SMILES	IC50	IC50 (read-out: pIC50 (converted))
Cn1cc(-c2ccncc2)c(-c2ccc(OCc3ccc4ccccc4n3)cc2)n1 [MARDEPODECT]	> 20 µM	> 20 µM
O=C(O)C(Cl)Cl [DICHLOROACETIC ACID]	> 20 µM	> 20 µM
CCCCCCCCCC(=O)O[C@H]1CC[C@H]2[C@@H]3CCC4=CC(=O)CC[C@@H]4[C@H]3CC[C@]12C [NANDROLONE DECANOATE]	> 20 µM	> 20 µM
CCCN1CCC[C@@H](c2cccc(O)c2)C1 [PRECLAMOL]	> 20 µM	> 20 µM
Cc1nc2n(c(=O)c1CCN1CCC(C(=O)c3ccc(F)cc3)CC1)CCS2 [SETOPERONE]	> 20 µM	> 20 µM
c1ccc(-c2cc(CCC3CCNCC3)c3ccccc3n2)cc1 [PIPEQUALINE]	> 20 µM	> 20 µM
O=C(/C=C/c1ccc2c(c1)OCO2)N1CCCCC1 [ILEPCIMIDE]	> 20 µM	> 20 µM
CN(CC1(C)CCCO1)S(=O)(=O)c1ccc(Cl)c(S(N)(=O)=O)c1 (stereo unspecified) [MEFRUSIDE]	> 20 µM	> 20 µM
NNC(=O)CN1C(=O)CN=C(c2ccccc2)c2cc(Br)ccc21	> 20 µM	> 20 µM
CCCCS(=N)(=O)CCC(N)C(=O)O (stereo unspecified) [BUTHIONINE SULFOXIMINE]	> 20 µM	> 20 µM
CC(C)=CCC[C@]1(C)C=Cc2c(O)c3c(c(CC=C(C)C)c2O1)O[C@]12C(=C[C@@H]4C[C@H]1C(C)(C)O[C@@]2(C/C=C(/C)C(=O)O)C4=O)C3=O [GAMBOGIC ACID]	> 20 µM	> 20 µM
CC(=O)OC[C@@]1(O)C[C@@]23CC[C@@H]4c5ccoc5CC[C@@]4(C)[C@@H]2CC[C@@H]1C3 [CAFESTOL ACETATE]	> 20 µM	> 20 µM
CN1CC[C@@]23CCCC[C@@H]2C1Cc1ccc(O)cc13	> 20 µM	> 20 µM
CN1CCO[C@@H](c2ccccc2)c2ccccc2C1	> 20 µM	> 20 µM
Cn1nc(-c2cccc(F)c2)n(C)c1=S [SURITOZOLE]	> 20 µM	> 20 µM
O=[N+]([O-])c1ccc(O)c([N+](=O)[O-])c1 [2,4-DINITROPHENOL]	> 20 µM	> 20 µM
C[C@H](COC(=O)[C@@H](N)Cc1ccc(O)c(O)c1)OC(=O)c1ccccc1	> 20 µM	> 20 µM
Nc1c2c(nc3c1CCC3)CCCC2 [IPIDACRINE]	> 20 µM	> 20 µM
CC(O)(CC(=O)O)CC(=O)O [MEGLUTOL]	> 20 µM	> 20 µM
CCn1nc(C(=O)O)c(=O)c2cc3c(cc21)OCO3 [CINOXACIN]	> 20 µM	> 20 µM
CCOc1nc2cccc(C(=O)O)c2n1Cc1ccc(-c2ccccc2-c2noc(=O)[nH]2)cc1 [AZILSARTAN]	> 20 µM	> 20 µM

SMILES	IC50	IC50 (read-out: pIC50 (converted))
CCc1cc2c(cc1N1CCC(N3CCOCC3)CC1)C(C)(C)c1[nH]c3cc(C#N)ccc3c1C2=O [ALECTINIB]	> 20 µM	> 20 µM
CC(C)n1nc(-c2ccc3oc(N)nc3c2)c2c(N)ncnc21 [SAPANISERTIB]	> 20 µM	> 20 µM
CCC1(CC)C(=O)NC(=O)NC1=O [BARBITAL]	> 20 µM	> 20 µM
C=CC(=O)N[C@@H]1CN(c2nc(Nc3cn(C)nc3OC)c3ncn(C)c3n2)C[C@H]1F [MAVELERTINIB]	> 20 µM	> 20 µM
O=C1CN=C(c2ccccc2)c2cc(Cl)ccc2N1CC(F)(F)F [HALAZEPAM]	> 20 µM	> 20 µM
CC1CN(c2cc3c(cc2F)c(=O)c(C(=O)O)cn3-c2ccc(F)cc2F)CCN1 (stereo unspecified) [TEMAFLOXACIN]	> 20 µM	> 20 µM
CNc1ccccc1C(=O)O	> 20 µM	> 20 µM
CC(=O)NCC1(c2ccccc2)CCN(CC2COc3ccccc3O2)CC1 (stereo unspecified) [ACOXATRINE]	> 20 µM	> 20 µM
COc1ccc(-n2nc(CCC(=O)N(C)O)cc2-c2ccc(Cl)cc2)cc1 [TEPOXALIN]	> 20 µM	> 20 µM
CCOC(=O)C1=CCCC[C@@H]1S(=O)(=O)Nc1ccc(F)cc1Cl	> 20 µM	> 20 µM
Cn1cnc([N+](=O)[O-])c1Sc1ncnc2[nH]cnc12 [AZATHIOPRINE]	> 20 µM	> 20 µM
O=C1c2ccccc2S(=O)(=O)N1CCCCN1CCN(c2ncccn2)CC1 [IPSAPIRONE]	> 20 µM	> 20 µM
Cc1ccc(COC(=O)N2CC[C@H](CNc3ncccn3)[C@H](F)C2)cc1 [RISLENEMDAZ]	> 20 µM	> 20 µM
Cc1cn2nc([C@H]3CCCCN3C(=O)c3cc(Cl)ccc3NS(C)(=O)=O)cc2nc1N1CC[C@H](N)C1	> 20 µM	> 20 µM
CN(C)CCC=C1c2ccccc2C(C)(C)c2ccccc21	> 20 µM	> 20 µM
C[C@H]1[C@H]2C(=O)c3ccc(O)cc3[C@]1(C)CCN2CC1CC1 [KETAZOCINE]	> 20 µM	> 20 µM
CCc1ccc(C(=O)COc2ccc(CC3SC(=O)NC3=O)cc2)nc1 (stereo unspecified) [MITOGLITAZONE]	> 20 µM	> 20 µM
CC(C)CCCC(C)C1CCC2C3CCC4CC(=O)CCC4(C)C3CCC12C (stereo unspecified)	> 20 µM	> 20 µM
Cc1nc(Nc2ncc(C(=O)Nc3c(C)cccc3Cl)s2)cc(N2CCN(CCO)CC2)n1 [DASATINIB]	> 20 µM	> 20 µM
c1ccc2[nH]c(-c3nc4ccccc4[nH]3)nc2c1	> 20 µM	> 20 µM
CC[n+]1c(-c2ccccc2)c2cc(N)ccc2c2ccc(N)cc21 [HOMIDIUM]	> 20 µM	> 20 µM
